The subject of this assay is Human Skeletal Cells (SKM). Description: Protective effect on cell death induced by maitotoxin on human skeletal cells (SKM), WST-1 readout. The format is cell-based. Particulars: maitotoxin 24 h. As for the experimental part: The principle of the test is the following: maitotoxin is a toxin which causes the opening of the calcium channels of cells. The resulting intra-cellular flow of calcium is at the origin of the death of the cell. During this process of cell death, a cysteine-dependent protease, calpain, is activated, and an abundance of free radicals is produced. The test consists of incubating the cells in the presence of the composition to be tested, in order to delay or inactivate cell death and thus determine the protective effect.
The myoblasts are seeded at 2500 cells per well in 96-well plates in a DMEM 10% FCS (foetal calf serum) culture medium supplemented with amphotericin B, human recombinant epidermal growth factor and dexamethasone. Three days after seeding, the cells have adhered to the base of the well, the differentiation of the cells to myotubes is induced by adding 100 μl of DMEM F12 medium containing 2% horse serum. After three more days, 100 μl of compound to be tested are placed at the bottom of the well. After incubation for one hour at 37° C. under an atmosphere of 5% CO2, the maitotoxin (MTX) (Wako, ref: 131-10731) is added to evaluate the protective effect (concentration-effect) of the compound to be tested on cell death.
After an incubation time of 24 h, the culture medium is replaced by a DMEM 10% FCS medium supplemented by WST-1. […] The cells are incubated for 1 hour in the presence of WST-1. Then the number of live cells is determined using a Perkin-Elmer Wallac Envision 2101 device by reading the absorbance at 450 nm. The concentration-effect of the products on the cell survival rate is then calculated.
The CE50 is deduced by linear regression: concentration with respect to the percentage of protection. The mathematical method used is the isobologram approach described in: “Drug synergism and dose-effect data analysis, Ronald J. Tallarida, Chapman & Hall/CRC, 2000”.

Where a name gives a salt, the structure may show the parent alone. Read-outs that look alike come from different tables or passages of the source.

Take `CC(=O)OC1OCC[C@@H]1NC(=O)[C@H](CC(C)C)NC(=O)c1ccc2c(c1)Nc1ccccc1S2` (stereo partly drawn) [(3S)-3-{[N-(10H-phenothiazin-2-ylcarbonyl)-L-leucyl]amino}tetrahydrofuran-2-yl acetate]: the EC50 (in general, the concentration needed to bring the measured effect to its halfway point) (Homo sapiens, 24 h, read-out: EC50 μM After incubation for 24 h with the toxin, single substance (proportion 1), cell mortality rate induced by the toxin 97%) was 29.1 µM. As to `C[C@H]1C[C@@H]2[C@H]([C@@H](O)C[C@@]3(C)[C@H]2CC[C@]3(O)C(=O)CO)[C@@]2(C)C=CC(=O)C=C12` [α-methylprednisolone], the EC50 by setting is: (single substance (proportion 1), cell mortality rate induced by the toxin 84%, read-out: EC50 μM After incubation for 24 h with the toxin) 87.6 µM; (single substance (proportion 1), cell mortality rate induced by the toxin 96%, read-out: EC50 μM After incubation for 24 h with the toxin) 169 µM; (single substance (proportion 1), cell mortality rate induced by the toxin 97%, read-out: EC50 μM After incubation for 24 h with the toxin) 107 µM. For the compound `CC(C)C[C@H](NC(=N)c1ccc2c(c1)Nc1ccccc1S2)C(=O)N[C@H]1CCOC1O` (stereo partly drawn) [Example 5, N^1-[(3S)-2-hydroxytetrahydrofuran-3-yl]-N^2-[imino(10H-phenothiazin-2-yl)methyl]-L-leucinamide hydroiodide], the half-maximal effective concentration (EC50) (Homo sapiens, 24 h, read-out: EC50 μM After incubation for 24 h with the toxin, single substance (proportion 1), cell mortality rate induced by the toxin 84%) is 6.26 µM. Regarding `CC(C)C[C@H](NC(=N)c1ccc2c(c1)Nc1ccccc1S2)C(=O)N[C@H]1CCOC1O` (stereo partly drawn) [Example 7, N^1-[(3S)-2-hydroxytetrahydrofuran-3-yl]-N^2-[imino(10H-phenothiazin-2-yl)methyl]-L-leucinamide hydrochloride], the concentration for a half-maximal effect (EC50) (Homo sapiens, 24 h, read-out: EC50 μM After incubation for 24 h with the toxin, single substance (proportion 1), cell mortality rate induced by the toxin 96%) came to 5.92 µM.

Source of the values: US8642591B2, “Composition containing amidine derivatives or carboxamide derivatives and steroids, as a medicament” (priority 2006, dated 2014).
